Measured values from ChEMBL document CHEMBL3822442, “Synthesis and Pharmacological Characterization of Novel Glucagon-like Peptide-2 (GLP-2) Analogues with Low Systemic Clearance” (J Med Chem, 2016).
The source made the active and inactive calls. The calls are words filed in the database; no cut-off is given here. Non-standard residues stand in square brackets, D forms with d. Residues, ends and D or L forms follow the SMILES beside them. ξ: configuration not given here. ξNle = CCCCC(N)C(=O)O

Tests used:
[1] = target: T1, Glucagon-like peptide 2 receptor (Homo sapiens, UniProt O95838); assay: Agonist activity at human GLP2R expressed in HEK293 cells after 5 hrs by luciferase reporter gene assay; type: cell-based
T1 sequence (O95838 whole entry): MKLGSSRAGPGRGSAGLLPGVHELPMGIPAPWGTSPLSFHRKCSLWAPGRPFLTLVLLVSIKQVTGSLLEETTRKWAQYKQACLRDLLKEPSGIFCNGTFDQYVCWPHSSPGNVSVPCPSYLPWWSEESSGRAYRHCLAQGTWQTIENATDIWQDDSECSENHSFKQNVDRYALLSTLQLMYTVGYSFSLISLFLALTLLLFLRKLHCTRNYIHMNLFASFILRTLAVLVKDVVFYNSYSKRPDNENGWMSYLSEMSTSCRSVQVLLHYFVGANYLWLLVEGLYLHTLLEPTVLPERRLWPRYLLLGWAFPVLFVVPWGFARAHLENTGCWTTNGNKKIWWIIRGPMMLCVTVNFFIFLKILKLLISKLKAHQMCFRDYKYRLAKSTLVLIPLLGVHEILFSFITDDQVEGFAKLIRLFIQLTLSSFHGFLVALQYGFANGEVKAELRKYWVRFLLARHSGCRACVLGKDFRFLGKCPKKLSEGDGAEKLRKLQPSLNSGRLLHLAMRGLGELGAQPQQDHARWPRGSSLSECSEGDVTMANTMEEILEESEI

[2] = Systemic clearance in Sprague-Dawley rat at 0.2 mg/kg, iv through cassette dosing measured up to 300 mins by LC/MS/MS analysis; type: ADME, organism-based; details: in vivo
[3] = target: Glucagon-like peptide 1 receptor (Homo sapiens, UniProt P43220); assay: Agonist activity at human GLP1R expressed in HEK293 cells after 5 hrs by luciferase reporter gene assay; type: cell-based
Glucagon-like peptide 1 receptor, sequence (P43220 whole entry): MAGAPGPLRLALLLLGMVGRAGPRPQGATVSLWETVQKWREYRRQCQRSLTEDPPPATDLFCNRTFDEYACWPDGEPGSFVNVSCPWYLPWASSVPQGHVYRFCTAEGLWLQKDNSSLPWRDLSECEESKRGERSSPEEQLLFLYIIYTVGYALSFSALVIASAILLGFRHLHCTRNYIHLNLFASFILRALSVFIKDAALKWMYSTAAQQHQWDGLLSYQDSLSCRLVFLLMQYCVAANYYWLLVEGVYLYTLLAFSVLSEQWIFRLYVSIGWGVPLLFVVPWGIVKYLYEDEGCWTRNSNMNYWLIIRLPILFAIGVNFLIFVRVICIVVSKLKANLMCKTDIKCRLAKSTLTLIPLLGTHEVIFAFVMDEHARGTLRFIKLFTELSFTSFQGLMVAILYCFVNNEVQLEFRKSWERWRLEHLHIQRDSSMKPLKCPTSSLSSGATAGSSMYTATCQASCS

[4] = test system: HEK293; assay: Selectivity ratio of EC50 for human GLP1R expressed in HEK293 cells to EC50 for human GLP2R expressed in HEK293; type: cell-based
[5] = Protein binding in rat plasma at 200 to 1000 ng/ml incubated for 15 mins by LC/MS/MS based ultracentrifugation method; type: ADME, cell-free; details: read-out: PPB (converted)
[6] = target: Glucagon receptor (Homo sapiens) (UniProt P47871); assay: Agonist activity at human GCGR expressed in HEK293 cells up to 1000 nM after 5 hrs by luciferase reporter gene assay; type: cell-based
Glucagon receptor (Homo sapiens), sequence (P47871 whole entry): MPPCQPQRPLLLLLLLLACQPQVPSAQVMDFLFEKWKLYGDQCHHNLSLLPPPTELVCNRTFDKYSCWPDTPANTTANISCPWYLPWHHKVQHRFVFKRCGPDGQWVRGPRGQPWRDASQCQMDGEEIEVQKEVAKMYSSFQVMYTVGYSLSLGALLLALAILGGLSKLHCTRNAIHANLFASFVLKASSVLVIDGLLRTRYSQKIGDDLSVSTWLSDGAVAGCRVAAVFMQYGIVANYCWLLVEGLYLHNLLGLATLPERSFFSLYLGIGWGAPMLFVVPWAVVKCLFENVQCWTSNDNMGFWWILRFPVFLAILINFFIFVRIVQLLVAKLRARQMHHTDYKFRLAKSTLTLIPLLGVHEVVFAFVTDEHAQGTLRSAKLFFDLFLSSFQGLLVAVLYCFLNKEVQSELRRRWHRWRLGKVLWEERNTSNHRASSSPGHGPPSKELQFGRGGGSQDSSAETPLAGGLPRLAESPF

[7] = target: T2, Glucagon-like peptide 2 receptor (Rattus norvegicus, UniProt Q9Z0W0); assay: Agonist activity at rat GLP2R expressed in HEK293 cells after 5 hrs by luciferase reporter gene assay; type: cell-based
T2 sequence (Q9Z0W0 whole entry): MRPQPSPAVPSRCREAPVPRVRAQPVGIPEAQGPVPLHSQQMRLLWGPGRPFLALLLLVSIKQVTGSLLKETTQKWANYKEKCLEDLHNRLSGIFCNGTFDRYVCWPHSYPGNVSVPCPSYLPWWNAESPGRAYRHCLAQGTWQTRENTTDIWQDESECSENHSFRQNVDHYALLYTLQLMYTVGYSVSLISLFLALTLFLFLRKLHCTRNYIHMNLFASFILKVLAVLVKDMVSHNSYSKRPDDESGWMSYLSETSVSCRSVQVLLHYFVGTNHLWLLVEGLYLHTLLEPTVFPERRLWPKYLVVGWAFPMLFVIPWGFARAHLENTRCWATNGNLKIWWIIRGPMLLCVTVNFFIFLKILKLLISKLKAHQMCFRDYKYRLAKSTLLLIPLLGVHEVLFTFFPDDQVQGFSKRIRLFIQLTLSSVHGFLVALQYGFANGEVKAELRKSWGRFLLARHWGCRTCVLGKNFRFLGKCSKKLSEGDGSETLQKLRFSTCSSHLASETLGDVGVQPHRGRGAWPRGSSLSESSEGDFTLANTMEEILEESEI

Row | SMILES | EC50 [1] | clearance [2] | EC50 [3] | fraction unbound at 0.25 h [5] | Activity [6] | EC50 [7] | Ratio EC50 [4]
1 | CCCCC(NC(=O)[C@H](CCC(=O)O)NC(=O)[C@H](CC(=O)O)NC(=O)[C@H](CO)NC(=O)[C@H](Cc1ccccc1)NC(=O)[C@H](CO)NC(=O)CNC(=O)[C@H](CC(=O)O)NC(=O)CNC(=O)[C@@H](N)Cc1cnc[nH]1)C(=O)N[C@H](Cc1ccccc1)C(=O)N[C@H](C(=O)N[C@H](C(=O)N[C@@H](CC(C)C)C(=O)N[C@@H](CC(=O)O)C(=O)N[C@@H](CC(C)C)C(=O)N[C@@H](CC(C)C)C(=O)N[C@@H](C)C(=O)N[C@@H](C)C(=O)N[C@@H](CCCNC(=N)N)C(=O)N[C@@H](CC(=O)O)C(=O)N[C@@H](Cc1ccccc1)C(=O)N[C@H](C(=O)N[C@@H](CC(N)=O)C(=O)N[C@@H](Cc1c[nH]c2ccccc12)C(=O)N[C@@H](CC(C)C)C(=O)N[C@H](C(=O)N[C@@H](CCC(N)=O)C(=O)N[C@H](C(=O)N[C@@H](CCCCN)C(=O)N[C@H](C(=O)N[C@H](C(=O)N[C@@H](CC(=O)O)C(=O)NCC(C)C)[C@@H](C)O)[C@@H](C)CC)[C@@H](C)O)[C@@H](C)CC)[C@@H](C)CC)[C@@H](C)CC)[C@@H](C)O (stereo partly drawn) | 0.06 nM | 0.17 mL/min/kg | > 1000 nM | 0.016 | – | – | > 16000
2 | CCCC[C@H](NC(=O)[C@H](CCC(=O)O)NC(=O)[C@H](CC(=O)O)NC(=O)[C@H](CO)NC(=O)[C@H](Cc1ccccc1)NC(=O)[C@H](CO)NC(=O)CNC(=O)[C@H](CC(=O)O)NC(=O)CNC(=O)[C@@H](N)Cc1cnc[nH]1)C(=O)N[C@H](Cc1ccccc1)C(=O)N[C@H](C(=O)N[C@H](C(=O)N[C@@H](CC(C)C)C(=O)N[C@@H](CC(=O)O)C(=O)N[C@@H](CC(C)C)C(=O)N[C@@H](CC(C)C)C(=O)N[C@@H](C)C(=O)N[C@@H](C)C(=O)N[C@@H](CCCNC(=N)N)C(=O)N[C@@H](CC(=O)O)C(=O)N[C@@H](Cc1ccccc1)C(=O)N[C@H](C(=O)N[C@@H](CC(N)=O)C(=O)N[C@@H](Cc1c[nH]c2ccccc12)C(=O)N[C@@H](CC(C)C)C(=O)N[C@H](C(=O)N[C@@H](CCC(N)=O)C(=O)N[C@H](C(=O)N[C@@H](CCCCN)C(=O)N[C@H](C(=O)N[C@H](C(=O)N[C@@H](CC(=O)O)C(N)=O)[C@@H](C)O)[C@@H](C)CC)[C@@H](C)O)[C@@H](C)CC)[C@@H](C)CC)[C@@H](C)CC)[C@@H](C)O | 0.03 nM | – | > 1000 nM | 0.008 | – | 0.04 nM | –
3 | CCCC[C@H](NC(=O)[C@H](CCC(=O)O)NC(=O)[C@H](CC(=O)O)NC(=O)[C@H](CO)NC(=O)[C@H](Cc1ccccc1)NC(=O)[C@H](CO)NC(=O)CNC(=O)[C@H](CC(=O)O)NC(=O)CNC(=O)[C@@H](N)Cc1cnc[nH]1)C(=O)N[C@H](Cc1ccccc1)C(=O)N[C@H](C(=O)N[C@H](C(=O)N[C@@H](CC(C)C)C(=O)N[C@@H](CC(=O)O)C(=O)N[C@@H](CC(N)=O)C(=O)N[C@@H](CC(C)C)C(=O)N[C@@H](C)C(=O)N[C@@H](C)C(=O)N[C@@H](CCCNC(=N)N)C(=O)N[C@@H](CC(=O)O)C(=O)N[C@@H](Cc1ccccc1)C(=O)N[C@H](C(=O)N[C@@H](CC(N)=O)C(=O)N[C@@H](Cc1c[nH]c2ccccc12)C(=O)N[C@@H](CC(C)C)C(=O)N[C@H](C(=O)N[C@@H](CCC(N)=O)C(=O)N[C@H](C(=O)N[C@@H](CCCCN)C(N)=O)[C@@H](C)O)[C@@H](C)CC)[C@@H](C)CC)[C@@H](C)CC)[C@@H](C)O | 0.09 nM | – | 120 nM | 0.039 | – | – | –
4 | CCCC[C@H](NC(=O)[C@H](CCC(=O)O)NC(=O)[C@H](CC(=O)O)NC(=O)[C@H](CO)NC(=O)[C@H](Cc1ccccc1)NC(=O)[C@H](CO)NC(=O)CNC(=O)[C@H](CC(=O)O)NC(=O)CNC(=O)[C@@H](N)Cc1cnc[nH]1)C(=O)N[C@H](Cc1ccccc1)C(=O)N[C@H](C(=O)N[C@H](C(=O)N[C@@H](CC(C)C)C(=O)N[C@@H](CC(=O)O)C(=O)N[C@@H](CC(C)C)C(=O)N[C@@H](CC(C)C)C(=O)N[C@@H](C)C(=O)N[C@@H](C)C(=O)N[C@@H](CCCNC(=N)N)C(=O)N[C@@H](CC(=O)O)C(=O)N[C@@H](Cc1ccccc1)C(=O)N[C@H](C(=O)N[C@@H](CC(N)=O)C(=O)N[C@@H](Cc1c[nH]c2ccccc12)C(=O)N[C@@H](CC(C)C)C(=O)N[C@H](C(=O)N[C@@H](CCC(N)=O)C(=O)N[C@H](C(=O)N[C@@H](CCCCN)C(N)=O)[C@@H](C)O)[C@@H](C)CC)[C@@H](C)CC)[C@@H](C)CC)[C@@H](C)O | 0.08 nM | – | > 1000 nM | 0.024 | – | – | –

Further lines, with some results ahead:

Row | EC50 [1] | clearance [2] | EC50 [3] | fraction unbound at 0.25 h [5] | Activity [6] | EC50 [7] | SMILES | Ratio EC50 [4]
5 | 0.1 nM | 0.84 mL/min/kg | > 1000 nM | 0.013 | inactive | – | CCCCC(NC(=O)[C@H](CCC(=O)O)NC(=O)[C@H](CC(=O)O)NC(=O)[C@H](CO)NC(=O)[C@H](Cc1ccccc1)NC(=O)[C@H](CO)NC(=O)CNC(=O)[C@H](CC(=O)O)NC(=O)CNC(=O)[C@@H](N)Cc1cnc[nH]1)C(=O)N[C@@H](CC(N)=O)C(=O)N[C@H](C(=O)N[C@H](C(=O)N[C@@H](CC(C)C)C(=O)N[C@@H](CC(=O)O)C(=O)N[C@@H](CC(C)C)C(=O)N[C@@H](CC(C)C)C(=O)N[C@@H](C)C(=O)N[C@@H](C)C(=O)N[C@@H](CCCNC(=N)N)C(=O)N[C@@H](CC(=O)O)C(=O)N[C@@H](Cc1ccccc1)C(=O)N[C@H](C(=O)N[C@@H](CC(N)=O)C(=O)N[C@@H](Cc1c[nH]c2ccccc12)C(=O)N[C@@H](CC(C)C)C(=O)N[C@H](C(=O)N[C@@H](CCC(N)=O)C(=O)N[C@H](C(=O)N[C@@H](CCCCN)C(N)=O)[C@@H](C)O)[C@@H](C)CC)[C@@H](C)CC)[C@@H](C)CC)[C@@H](C)O (stereo partly drawn) (H-HGDGSFSDE[ξNle]NTILDLLAARDFINWLIQTK-NH2) | > 10000
6 | 0.03 nM | 0.28 mL/min/kg | > 1000 nM | 0.005 | – | – | CCCC[C@H](NC(=O)[C@H](CCC(=O)O)NC(=O)[C@H](CC(=O)O)NC(=O)[C@H](CO)NC(=O)[C@H](Cc1ccccc1)NC(=O)[C@H](CO)NC(=O)CNC(=O)[C@H](CC(=O)O)NC(=O)CNC(=O)[C@@H](N)Cc1cnc[nH]1)C(=O)N[C@H](Cc1ccccc1)C(=O)N[C@H](C(=O)N[C@H](C(=O)N[C@@H](CC(C)C)C(=O)N[C@@H](CC(=O)O)C(=O)N[C@@H](CC(C)C)C(=O)N[C@@H](CC(C)C)C(=O)N[C@@H](C)C(=O)N[C@@H](C)C(=O)N[C@@H](CCCNC(=N)N)C(=O)N[C@@H](CC(=O)O)C(=O)N[C@@H](Cc1ccccc1)C(=O)N[C@H](C(=O)N[C@@H](CC(N)=O)C(=O)N[C@@H](Cc1c[nH]c2ccccc12)C(=O)N[C@@H](CC(C)C)C(=O)N[C@H](C(=O)N[C@@H](CCC(N)=O)C(=O)N[C@H](C(=O)N[C@@H](CCCCN)C(=O)N[C@H](C(=O)N[C@H](C(=O)N[C@@H](CC(=O)O)C(=O)O)[C@@H](C)O)[C@@H](C)CC)[C@@H](C)O)[C@@H](C)CC)[C@@H](C)CC)[C@@H](C)CC)[C@@H](C)O | –
7 | – | 25 mL/min/kg | 520 nM | 0.338 | – | – | CC[C@H](C)[C@H](NC(=O)[C@H](Cc1ccccc1)NC(=O)[C@H](CC(=O)O)NC(=O)[C@H](CCCN=C(N)N)NC(=O)[C@H](C)NC(=O)[C@H](C)NC(=O)[C@H](CC(C)C)NC(=O)[C@H](CC(N)=O)NC(=O)[C@H](CC(=O)O)NC(=O)[C@H](CC(C)C)NC(=O)[C@@H](NC(=O)[C@@H](NC(=O)[C@H](CC(N)=O)NC(=O)[C@H](CCSC)NC(=O)[C@H](CCC(=O)O)NC(=O)[C@H](CC(=O)O)NC(=O)[C@H](CO)NC(=O)[C@H](Cc1ccccc1)NC(=O)[C@H](CO)NC(=O)CNC(=O)[C@H](CC(=O)O)NC(=O)[C@H](C)NC(=O)[C@@H](N)Cc1cnc[nH]1)[C@@H](C)O)[C@@H](C)CC)C(=O)N[C@@H](CC(N)=O)C(=O)N[C@@H](Cc1c[nH]c2ccccc12)C(=O)N[C@@H](CC(C)C)C(=O)N[C@H](C(=O)N[C@@H](CCC(N)=O)C(=O)N[C@H](C(=O)N[C@@H](CCCCN)C(=O)N[C@H](C(=O)N[C@H](C(=O)N[C@@H](CC(=O)O)C(=O)O)[C@@H](C)O)[C@@H](C)CC)[C@@H](C)O)[C@@H](C)CC | –
